Reference: ChEMBL document CHEMBL5465560, “Selectivity Literature for EUbOPEN Chemogenomic Library” (2024)
Blank lines part the entries; values can stand above or below the compound they belong to.

Legend:
[1] = molecular target: Nociceptin receptor (Homo sapiens) (UniProt P41146); assay: Selectivity interaction (Eurofins CEREP Diversity Profile (receptors and ion channels)) EUB0000279b OPRL1; details: at 10 µM
[2] = molecular target: Tyrosine-protein kinase JAK1 (Homo sapiens, UniProt P23458); assay: Selectivity interaction (NanoBRET assay (HEK293T cells)) EUB0001559a JAK1; type: cell-based, HEK-293T
[3] = molecular target: T1, Dual specificity mitogen-activated protein kinase kinase 3 (Homo sapiens) (UniProt P46734); assay: Selectivity interaction (KinomeScan (DiscoverX)) EUB0000618a MAP2K3; details: at 10 µM
T1 sequence (whole entry): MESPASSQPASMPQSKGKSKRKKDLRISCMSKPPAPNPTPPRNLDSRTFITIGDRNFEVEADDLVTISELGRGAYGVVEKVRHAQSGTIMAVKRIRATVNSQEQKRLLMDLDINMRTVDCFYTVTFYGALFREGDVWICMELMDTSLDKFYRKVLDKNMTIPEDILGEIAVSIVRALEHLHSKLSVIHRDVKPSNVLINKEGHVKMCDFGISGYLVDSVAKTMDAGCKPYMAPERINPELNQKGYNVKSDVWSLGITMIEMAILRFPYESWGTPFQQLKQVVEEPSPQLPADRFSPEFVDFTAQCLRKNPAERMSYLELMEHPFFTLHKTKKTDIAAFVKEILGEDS

[4] = molecular target: SRSF protein kinase 2 (Homo sapiens) (UniProt P78362); assay: Selectivity interaction (KinomeScan (DiscoverX)) EUB0001619a SRPK2; details: at 1 µM
[5] = molecular target: T2, Testis-specific serine/threonine-protein kinase 2 (Homo sapiens) (UniProt Q96PF2); assay: Selectivity interaction (Kinase panel (Invitrogen)) EUB0000639a TSSK2; details: at 200 nM
T2 sequence (whole entry): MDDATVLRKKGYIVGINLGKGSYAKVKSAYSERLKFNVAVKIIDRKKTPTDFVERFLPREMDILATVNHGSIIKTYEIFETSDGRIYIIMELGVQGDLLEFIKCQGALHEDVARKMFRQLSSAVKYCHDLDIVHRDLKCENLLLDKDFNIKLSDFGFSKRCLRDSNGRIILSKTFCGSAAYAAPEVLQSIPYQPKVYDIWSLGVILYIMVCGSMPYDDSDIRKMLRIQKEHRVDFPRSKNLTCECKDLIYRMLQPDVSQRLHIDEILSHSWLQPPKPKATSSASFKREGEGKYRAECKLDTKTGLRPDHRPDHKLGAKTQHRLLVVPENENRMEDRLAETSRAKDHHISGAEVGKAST

[6] = molecular target: T3, Mitogen-activated protein kinase kinase kinase 19 (Homo sapiens) (UniProt Q56UN5); assay: Selectivity interaction (KinomeScan (DiscoverX)) EUB0001868a MAP3K19; details: at 1 µM
T3 sequence (whole entry): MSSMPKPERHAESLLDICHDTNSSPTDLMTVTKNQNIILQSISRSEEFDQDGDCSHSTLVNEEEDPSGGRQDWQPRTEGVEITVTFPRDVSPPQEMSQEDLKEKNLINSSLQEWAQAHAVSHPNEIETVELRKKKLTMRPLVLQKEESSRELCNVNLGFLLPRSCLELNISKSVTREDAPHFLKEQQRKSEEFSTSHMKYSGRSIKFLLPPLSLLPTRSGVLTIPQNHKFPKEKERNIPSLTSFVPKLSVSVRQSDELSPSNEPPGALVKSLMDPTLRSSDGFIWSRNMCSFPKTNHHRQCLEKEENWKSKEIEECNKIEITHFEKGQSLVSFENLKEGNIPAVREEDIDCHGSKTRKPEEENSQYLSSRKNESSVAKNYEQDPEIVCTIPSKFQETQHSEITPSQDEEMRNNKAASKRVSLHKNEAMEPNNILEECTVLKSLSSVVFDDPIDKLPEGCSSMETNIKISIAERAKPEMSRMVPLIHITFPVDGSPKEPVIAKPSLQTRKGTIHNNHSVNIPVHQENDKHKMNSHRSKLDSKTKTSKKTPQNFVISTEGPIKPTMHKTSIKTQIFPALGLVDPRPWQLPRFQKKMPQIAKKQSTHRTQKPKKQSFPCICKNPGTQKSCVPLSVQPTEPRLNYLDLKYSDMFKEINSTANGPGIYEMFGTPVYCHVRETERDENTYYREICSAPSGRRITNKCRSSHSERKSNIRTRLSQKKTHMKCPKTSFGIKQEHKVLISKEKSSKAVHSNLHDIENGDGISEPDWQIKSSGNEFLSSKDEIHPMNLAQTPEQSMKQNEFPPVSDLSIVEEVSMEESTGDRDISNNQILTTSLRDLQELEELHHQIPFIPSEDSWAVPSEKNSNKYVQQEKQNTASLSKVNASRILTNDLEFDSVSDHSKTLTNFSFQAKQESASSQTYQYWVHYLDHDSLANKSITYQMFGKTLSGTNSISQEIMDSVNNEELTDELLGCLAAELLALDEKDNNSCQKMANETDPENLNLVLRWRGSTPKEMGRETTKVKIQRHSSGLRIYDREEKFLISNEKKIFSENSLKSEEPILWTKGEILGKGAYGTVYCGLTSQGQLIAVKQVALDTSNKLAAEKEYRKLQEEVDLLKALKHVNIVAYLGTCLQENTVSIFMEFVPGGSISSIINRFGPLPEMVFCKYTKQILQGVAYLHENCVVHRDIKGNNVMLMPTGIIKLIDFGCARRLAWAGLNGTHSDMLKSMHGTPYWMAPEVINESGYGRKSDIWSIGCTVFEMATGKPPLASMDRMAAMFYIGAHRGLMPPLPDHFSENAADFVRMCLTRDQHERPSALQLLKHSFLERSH

Sequence of SRSF protein kinase 2 (Homo sapiens) (P78362 whole entry, looked up): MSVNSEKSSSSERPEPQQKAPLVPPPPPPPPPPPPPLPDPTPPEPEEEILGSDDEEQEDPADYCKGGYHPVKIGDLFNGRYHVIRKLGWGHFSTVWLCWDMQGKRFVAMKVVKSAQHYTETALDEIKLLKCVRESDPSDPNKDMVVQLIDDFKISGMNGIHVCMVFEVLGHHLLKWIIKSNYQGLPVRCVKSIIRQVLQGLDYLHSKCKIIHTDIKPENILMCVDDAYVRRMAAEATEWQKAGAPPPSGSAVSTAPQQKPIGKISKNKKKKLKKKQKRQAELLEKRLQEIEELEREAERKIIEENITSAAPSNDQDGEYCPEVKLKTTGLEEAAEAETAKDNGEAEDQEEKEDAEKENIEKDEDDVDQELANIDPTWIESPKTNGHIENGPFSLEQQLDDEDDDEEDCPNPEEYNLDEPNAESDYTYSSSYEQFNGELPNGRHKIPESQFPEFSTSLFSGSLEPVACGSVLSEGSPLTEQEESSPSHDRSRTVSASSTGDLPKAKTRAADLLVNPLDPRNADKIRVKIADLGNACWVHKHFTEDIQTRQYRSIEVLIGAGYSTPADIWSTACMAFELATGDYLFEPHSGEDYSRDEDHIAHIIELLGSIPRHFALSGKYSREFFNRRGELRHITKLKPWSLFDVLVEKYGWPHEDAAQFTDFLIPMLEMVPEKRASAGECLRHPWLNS
Sequence of Tyrosine-protein kinase JAK1 (P23458 whole entry): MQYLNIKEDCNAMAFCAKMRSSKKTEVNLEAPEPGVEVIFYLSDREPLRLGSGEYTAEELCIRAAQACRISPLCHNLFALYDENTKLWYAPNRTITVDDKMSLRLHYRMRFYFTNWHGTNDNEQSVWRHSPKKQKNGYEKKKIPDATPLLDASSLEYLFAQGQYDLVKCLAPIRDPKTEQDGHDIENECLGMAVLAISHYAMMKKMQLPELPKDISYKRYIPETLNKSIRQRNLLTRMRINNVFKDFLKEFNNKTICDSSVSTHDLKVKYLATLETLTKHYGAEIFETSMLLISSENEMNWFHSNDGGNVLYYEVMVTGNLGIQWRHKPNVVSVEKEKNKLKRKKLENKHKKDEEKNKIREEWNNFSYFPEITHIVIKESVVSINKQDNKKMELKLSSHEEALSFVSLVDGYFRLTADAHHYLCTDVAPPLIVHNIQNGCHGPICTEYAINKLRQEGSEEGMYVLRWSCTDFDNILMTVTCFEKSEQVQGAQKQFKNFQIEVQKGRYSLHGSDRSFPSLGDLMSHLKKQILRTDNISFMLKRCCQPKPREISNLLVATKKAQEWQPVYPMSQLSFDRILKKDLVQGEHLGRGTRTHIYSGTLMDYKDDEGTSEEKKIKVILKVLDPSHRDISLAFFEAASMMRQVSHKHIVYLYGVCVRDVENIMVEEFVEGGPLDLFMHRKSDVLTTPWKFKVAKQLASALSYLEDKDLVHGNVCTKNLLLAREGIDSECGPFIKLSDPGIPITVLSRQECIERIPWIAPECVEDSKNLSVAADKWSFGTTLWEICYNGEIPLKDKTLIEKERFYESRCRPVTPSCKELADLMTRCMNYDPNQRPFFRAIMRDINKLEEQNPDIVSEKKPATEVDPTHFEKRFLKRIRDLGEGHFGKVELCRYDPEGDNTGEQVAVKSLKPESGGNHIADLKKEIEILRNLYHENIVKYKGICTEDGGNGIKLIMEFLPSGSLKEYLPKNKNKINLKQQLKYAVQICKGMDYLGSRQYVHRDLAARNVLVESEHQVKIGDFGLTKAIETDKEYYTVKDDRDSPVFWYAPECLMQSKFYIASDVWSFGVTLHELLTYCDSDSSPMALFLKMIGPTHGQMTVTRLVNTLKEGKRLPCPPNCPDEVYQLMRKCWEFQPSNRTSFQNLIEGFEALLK
Sequence of Nociceptin receptor (Homo sapiens) (P41146 whole entry): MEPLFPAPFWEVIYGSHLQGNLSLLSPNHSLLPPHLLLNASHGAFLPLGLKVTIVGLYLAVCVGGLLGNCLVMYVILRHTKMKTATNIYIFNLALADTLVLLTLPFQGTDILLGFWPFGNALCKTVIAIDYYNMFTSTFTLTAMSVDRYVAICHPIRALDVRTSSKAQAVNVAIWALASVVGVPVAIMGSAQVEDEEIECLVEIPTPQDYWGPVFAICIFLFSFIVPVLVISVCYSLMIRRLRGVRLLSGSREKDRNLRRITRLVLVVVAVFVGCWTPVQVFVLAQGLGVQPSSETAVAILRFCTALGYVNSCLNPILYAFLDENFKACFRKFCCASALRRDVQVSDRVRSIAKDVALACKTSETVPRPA

% of control [1]: 88%
Structure (SMILES): CC(=O)c1cc(-c2ccccc2OCC2CC2)c2ncccn12

EC50 [2]: > 50 µM
Structure (SMILES): CN(C(=O)c1cnn2cccnc12)c1cc2c(cc1N1CCOCC1)C(=O)N(C[C@@H](F)C(C)(C)O)C2

Structure (SMILES): O[C@H]1CC[C@H](Nc2ncc3nc(Nc4c(F)cc(F)cc4F)n([C@H]4CCOC4)c3n2)CC1
% of control [3]: 43%

Structure (SMILES): N#Cc1cccc(-c2c[nH]c3ncnc(N4CCOCC4)c23)c1
% of control [4]: 70%

% of inhibition [5]: 8.34%
Structure (SMILES): CC[C@@H]1[C@H](F)C(=O)N[C@@H]1COc1nccc2cc(C(N)=O)c(OC)cc12 [ZIMLOVISERTIB]

% of control [6]: 9%
Structure (SMILES): Cc1cc(-c2ccnc(Nc3cnn(C)c3)n2)ccc1CNC(=O)N1CC(OC(C)C)C1
